Results on four molecules are retold here after patent US8168675B2, “Compositions and methods for treating neurodegenerative diseases” (Marin Bio Co., Ltd., priority 2008, dated 2012).

What all share (type): in vivo
Test [1] has as its system C57BL/6 (B6) mice. In words: ABR hearing threshold measurement in aged mice (presbycusis model). The conditions noted are these: dietary supplementation from 4 to 15 months of age, *P<0.05, n=5 vs Control. On the procedure:
(§1) Details on the methods used to house and feed male inbred C57BL/6 (B6) mice have been described (Pugh et al., Cancer Res. 59:1642 [1999]). Briefly, Mice were divided into five groups: control, α-lipoic acid (ALA), CLA, coenzyme Q10 (CQ), and phenylalanine (PA). The compound treatment groups were fed the same caloric intake as controls, but were supplemented with ALA (150 mg/kg), CLA (5000 mg/kg), CQ (50 mg/kg), and PA (250 mg/kg) from 4 months of age until 15 months of age (FIG. 1).
Detailed protocols for ABR measurement have been described (Yamasoba et al., Neurosci Lett. 395:18 [2005]). […] Mice were anesthetized with a mixture of xylazine hydrochloride (10 mg/kg, i.m.) and ketamine hydrochloride (40 mg/kg, i.m.). Five to seven mice per group were used for this study, and the same mice were used for the following histopathological analyses. Data were examined using the two-tailed standard t-test and were tested for statistical significance using a One Way ANOVA test (GraphPad Prisim 5.0, San Diego, Calif.). All data were reported as mean±S.E.M.

Test [2] deals with C57BL/6 (B6) mice. In words: Cochlear histopathology (hair cells and SGCs). The conditions noted are these: dietary supplementation from 4 to 15 months of age, HE-stained cochlear sections, Control showed severe loss. On the procedure:
as §1
Detailed protocols for tissue processing have been described (Someya et al., [2007], supra). Briefly, 4% paraformaldehyde-fixed and paraffin-embedded specimens were sliced into 4 μm sections, mounted on silane-coated slides, stained with Haematoxylin and Eosin (HE), and observed under a light microscope (Leica Microsystems, Bannockburn, Ill.). The Rosenthal's canal was divided into three regions: apical, middle and basal (Keithley et al., [2004], supra) and the three regions were used for evaluation of cochlear histopathology. Five mice were used for each group that were the same mice as those used in the ABR tests. Five modiolar sections obtained in every fifth section from one unilateral cochlea were evaluated per mouse. The same animals were used for spiral ganglion cell counting.

Test [3] relates to C57BL/6 (B6) mice. In words: Spiral ganglion cell counting (SGC density). The settings on record: dietary supplementation from 4 to 15 months of age, *P<0.05, n=5. On the procedure: as §1
SGCs were identified by the presence of a nucleus. The SGC density was calculated as the number of SGCs per 1 mm^2. Five sections of the unilateral apical turn were evaluated in one cochlea per mouse. Data were analyzed using the two-tailed standard t-test. All data were reported as mean±S.E.M.

For the molecule `O=C(O)CCCCC1CCSS1` (stereo not drawn) [ALA, α-lipoic acid], in test [1], the “hearing by ABR thresholds at 32 kHz” value was “normal hearing”. The “loss of hair cells and SGCs in the cochleae” value (“loss of hair cells and SGCs” below) in test [2] is “no or only a few loss”. For the same molecule, in test [3], the “mean spiral ganglion cell density vs Control mice” value was “significantly higher”.

For `COC1=C(OC)C(=O)C(C/C=C(\C)CC/C=C(\C)CC/C=C(\C)CC/C=C(\C)CC/C=C(\C)CC/C=C(\C)CC/C=C(\C)CC/C=C(\C)CC/C=C(\C)CCC=C(C)C)=C(C)C1=O` [CQ, coenzyme Q10], the “hearing by ABR thresholds at 8 and 32 kHz” value in test [1] (8 and 32 kHz) is recorded as “normal hearing”. For the same molecule, the “loss of hair cells and SGCs” value in test [2] is “no or only a few loss”. The “mean spiral ganglion cell density vs Control mice” value in test [3] was “significantly higher”.

Take `N[C@@H](Cc1ccccc1)C(=O)O` [PA, phenylalanine]: in test [1], the “hearing by ABR thresholds at 32 kHz” value is “normal hearing”. Further, the “loss of hair cells and SGCs” value in test [2] is given as “no or only a few loss”. Further, the “mean spiral ganglion cell density vs Control mice” value in test [3] is on record as “significantly higher”.

Take conjugated linoleic acid [CLA]: the “hearing by ABR thresholds at 32 kHz” value in test [1] was “normal hearing”.
